Experimental findings from patent US20110152166A1, “METHOD OF MODULATION OF PROTEIN PHOSPHORYLATION-DEPENDENT CONFORMATIONAL TRANSITIONS WITH LOW MOLECULAR WEIGHT COMPOUNDS” (priority 2006, published 2011) are described below.

Holding throughout (assay): PDK1 activity assay with T308tide
What all share (format): biochemical

The target of one test is T1, GST-PDK1 [Gln150Met] (Homo sapiens, UniProt O15530, Q150M).
T1 construct: different protein constructs, comprising the full length protein or the catalytic domain alone; made in house; host or cells: HEK293 cells (pEBG-2T-PDK1 mutant)
T1 sequence (O15530 1-556 Q150M): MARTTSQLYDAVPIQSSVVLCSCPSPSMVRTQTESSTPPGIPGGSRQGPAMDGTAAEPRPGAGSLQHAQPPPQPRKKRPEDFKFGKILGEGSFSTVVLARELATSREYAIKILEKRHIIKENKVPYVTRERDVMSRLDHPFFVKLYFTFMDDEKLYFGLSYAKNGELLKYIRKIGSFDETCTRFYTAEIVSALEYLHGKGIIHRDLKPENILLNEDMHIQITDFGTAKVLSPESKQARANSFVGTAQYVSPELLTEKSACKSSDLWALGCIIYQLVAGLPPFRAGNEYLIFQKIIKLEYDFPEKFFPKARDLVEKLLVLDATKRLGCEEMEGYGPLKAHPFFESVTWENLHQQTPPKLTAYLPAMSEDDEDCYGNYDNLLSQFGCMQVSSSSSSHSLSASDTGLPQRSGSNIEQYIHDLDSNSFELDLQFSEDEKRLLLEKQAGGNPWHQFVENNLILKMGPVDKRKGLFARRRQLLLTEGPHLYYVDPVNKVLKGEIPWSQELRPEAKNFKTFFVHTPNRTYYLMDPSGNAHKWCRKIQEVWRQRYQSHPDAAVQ

A further test has as its target T2, GST-PDK1 [Gln150Glu] (Homo sapiens, UniProt O15530, Q150E).
T2 construct: different protein constructs, comprising the full length protein or the catalytic domain alone; made in house; host or cells: HEK293 cells (pEBG-2T-PDK1 mutant)
T2 sequence (O15530 1-556 Q150E): T1 sequence (O15530 1-556 Q150M) with M150E

The target of a further test is T3, GST-PDK1 [Leu155Ser] (Homo sapiens, UniProt O15530, L155S).
T3 construct: different protein constructs, comprising the full length protein or the catalytic domain alone; made in house; host or cells: HEK293 cells (pEBG-2T-PDK1 mutant)
T3 sequence (O15530 1-556 L155S): T1 sequence (O15530 1-556 Q150M) with M150Q, L155S
Conditions: for AC50: GST-PDK1 [Leu155Ser].

Numbering of substitutions follows the chain as printed. Like-named read-outs stand apart in the source and are kept apart here. Ends that are not written are not given here. Bounds are passed on as bounds.

The AC50 is the concentration at which the activity in the assay is half-maximal. For `O=C(O)CSC(CC(=O)c1ccc(Cl)cc1)c1ccccc1` (stereo not shown) [Compound 1], the AC50 is 177 ± 64 µM at GST-PDK1 [Gln150Met], more than 200 µM on GST-PDK1 [Gln150Glu] (read-out: AC50) and “No Effect” on GST-PDK1 [Leu155Ser]. Further, the Max. activity came to 2.28 ± 0.26 U/mg on GST-PDK1 [Gln150Met] and 2.5 ± 0.7 U/mg on GST-PDK1 [Gln150Glu]. At GST-PDK1 [Leu155Ser] (Leu155 replaced with Ser, constitutively active), the “activation of PDK1 mutant (in words)” value is “could not be further activated”.

Turning to “REPRILSEEEQEMFRDFDYIADWC [PIFtide, reference compound]”, the AC50 at GST-PDK1 [Gln150Met] was 0.86 ± 0.25 µM; on GST-PDK1 [Gln150Glu], “No Effect”; at GST-PDK1 [Leu155Ser], “No Effect”. The same compound gave a Max. activity at GST-PDK1 [Gln150Met] of 2.11 ± 0.15 U/mg.
